Read-outs that look alike come from different tables or passages of the source.
How the values were obtained:
[1] = test system: PAPH (phosphatidic acid phosphohydrolase); experiment: blocking of PAPH in a specific activation pathway; format: cell-based; conditions: pathway not involving PI; human mesangial cells, TNF
From the text: The compounds of the invention, include inhibitors of subspecies of LPAAT in PAPH enzymes with substrate specificity for intermediates with 1,2-diunsaturated and 1-alkyl, 2-unsaturated subspecies. One representative example of such an inhibitor (although not within the genus of inventive compounds) is PTX. […] It should be emphasized that the compounds of the invention affect that subset of PAPH and LPAAT that relates to substrates with unsaturated fatty acids other than arachidonate in the sn-2 position, not the housekeeping forms of these enzymes that serve the PI pathway.

[2] = test system: tumor necrosis factor (TNF) levels; conditions: cited from earlier work
[3] = test system: polymorphonuclear leukocytes; conditions: cited from earlier work; for chemotaxis in polymorphonuclear leukocytes: in response to a stimulator of chemotaxis
[4] = test system: cerebral blood flow; conditions: in vivo; cited from earlier work
[5] = test system: thymocytes; experiment: IL-2 (ConA co-stimulated) induced proliferation of thymocytes; format: cell-based, mice; conditions: Mus musculus, Thymocyte, 96 h; Table II; ConA 0.25 ug/ml / IL2 20 ng/ml, 4 days
Experimental: This example illustrates the effects of inventive compounds nos. 1105, 1114, 1413, 1439, 1594, 2518, 2548R, 2548S, 2562 and 3503 as effective inhibitors of IL-2 induced proliferation of thymocytes. Single cell suspensions of thymus gland cells obtained from 4-6 week old mice were prepared. Two-hundred thousand cells were plated into individual wells of flat-bottom 96-well plates in RPMI-1640-10% FCS medium. The invention compounds were then added to the wells at varying concentrations and the cells incubated for 1-2 hours at 37° C.
Following this pre-incubation a mixture of Concanavalin A (ConA) and Interleukin-2 (IL2) was added to the experimental wells at a final concentration of (0.25 ug/ml ConA)/(20 ng/ml IL2). Appropriate positive and negative controls were set up on each plate. Each variable was set up in quadruplicate.
The plates were incubated for 4 days at 37° C. in a humidified CO2 incubator. On day 4 the wells were pulsed with 1 μCi of tritiated thymidine(3H-TdR) and the plates incubated for an additional 4 hours. The plates were then harvested and the incorporation of 3H-TdR was determined in a liquid scintillation counter. From the CPM obtained from each experimental well an IC-50 for each inventive compound tested was determined. Therefore, a lower reported IC-50 value is indicative of greater inhibition of IL-2-induced proliferation of thymocytes. Table II illustrates IC-50 values (in μM) for inventive compounds inhibiting proliferation at very low concentrations of compound.

[6] = test system: normal human bone marrow stromal cells (MSC); experiment: human bone marrow stromal cell (MSC) proliferation in response to PDGF BB and IL-1α; format: cell-based; conditions: Table III, PDGF BB 50 ng/ml and IL-1α 10 ng/ml
Experimental: This example illustrates the effects of inventive compounds nos. 1114, 1413, 1560, 1565, 1594, 2518, 2548R, 2548S and 3503 as effective inhibitors of normal human bone marrow stromal cells (MSC) proliferation in response to Platelet Derived Growth Factor BB (PDGF B) and IL-1α (50 and 10 ng/ml, respectively).
MSC were obtained and malintained in exponential growth, released from a growth plate with trypsin and plated into 96 well tissue culture plates in the presence of Fibroblast Growth Factor (FGFβ) for 48 hours. Growth media were removed and the cells were washed once with serum free media. The cells were then incubated 20-24 hours in serum free media.
After incubation, inventive compounds were added to the cells at the appropriate concentration and then the cells again incubated for 1 hour. PDGF B and IL-1α were added to the cells along with 3H-thymidine and the cells again incubated for an additional 24 hours.
After 24 hours of incubation, the cells were then harvested to assess incorporation of ^3 H-thymidine into DNA (proliferation). From each harvested cell culture, an IC-50 for each inventive compound tested was determined. Therefore, a lower reported IC-50 value is indicatilve of greater activity of the invention compounds in inhibiting MSC proliferation. Table III illustrates IC-50 values (in μM) for invention compounds inhibiting MSC proliferation at very low concentrations of compound.

[7] = test system: LPS-induced TNF release in whole human blood; experiment: LPS-induced TNF release in whole human blood (FIG. 14); format: cell-based; conditions: LPS 10 ng/ml, read-out: inhibition of TNF-α induction
Experimental: This example illustrates inhibitive effects of the inventive compounds on LPS-induced TNF release. Data collected is reported as percent inhibition of LPS induced TNF release in whole human blood as compared with control values of TNF release.
In this assay, whole blood was collected from a healthy human donor into Vacutainer tubes containing ACD citrate anti-coagulant. Compounds to be tested were diluted in RPMI medium and added (5 μl) to tubes containing whole blood (225 μl). The tubes were mixed and incubated for a maximum of 1 hour at 37° C. LPS Salmonella abortus equi was diluted in RPMI and added to samples at 20 μl per tube (10 ng/ml final concentration). The prepared tubes were mixed and incubated for 4-6 hours at 37° C. The reaction was terminated by adding 750 μl of RPMI to each tube, then centrifuged to remove cells. Supernatants are collected and stored overnight at 4° C. Supernatant samples are assayed for TNF release using commercial immunoassay kits.

[8] = test system: lymphocytes; experiment: mixed lymphocyte reaction (MLR), human lymphocytes (FIG. 12); format: cell-based
Experimental: This example illustrates an inhibitive effect of compound no. 1206 in a mixed lymphocyte reaction (MLR). This MNR is used to screen potentially immunosuppressive drugs. Lymphocytes (2×10^5) from normal human donors are grown for 6 days in the presence and absence (control) of inventive compound no. 1206. Tritiated thymidine is added and the lymphocytes grown for a final 6 hours. Incorporation of the tritiated thymidine occurs when the cells are in cell cycle. […] An experimentally determined IC50 value for compound no. 1206 is 70 μM.

Q: With `CC(=O)CCCCn1c(=O)c2c(ncn2C)n(C)c1=O` [PTX, 1-(5-oxohexyl)-3,7-dimethylxanthine] as the molecule, how does the “blocking of PAPH” value [1] read?
A: Its value is “blocks PAPH in a specific activation pathway”.

Q: What about the TNF levels ([2]; normal volunteers) of the same molecule?
A: The TNF levels was “TNF levels were higher among PTX recipients”.

Q: What about the TNF levels ([2]; with GM-CSF, patients undergoing allogeneic bone marrow transplant) of the same molecule?
A: Its TNF levels is “decrease tumor necrosis factor (TNF) levels”.

Q: And the “activity of certain cytokines to affect chemotaxis” value [3]?
A: The value was “inhibit activity of certain cytokines to affect chemotaxis”.

Q: What about the “chemotaxis in polymorphonuclear leukocytes” value [3] of the same molecule?
A: The value was “stimulate chemotaxis in polymorphonuclear leukocytes”.

Q: For `CC(O)CCCCn1c(=O)c2c(ncn2C)n(C)c1=O` (centres unmarked) [Compound M1, 1-(5-hydroxyhexyl)-3,7-dimethylxanthine], which “chemotaxis in polymorphonuclear leukocytes” value [3] is on record?
A: The value was “stimulate chemotaxis in polymorphonuclear leukocytes”.

Q: And the cerebral blood flow [4]?
A: Its cerebral blood flow is “increasing cerebral blood flow”.

Q: What does the source list for `Cn1cnc2c1c(=O)n(CCCCCCCCCCC1CO1)c(=O)n2C` (centres unmarked) [Compound 2518, 1-(11,12-Oxidodecyl)-3,7-dimethylxanthine]?
A: IC50 [5]: 3.4 µM; IC50 [6]: 16.7 µM; inhibition at 50 µM [7]: 35%

Q: Which IC50 [8] does the source give for `Cn1c(=O)c2ccccc2n(CCCCC2CO2)c1=O` (centres unmarked) [Compound 1206, 1-(5,6-Oxidohexyl)-3-methylbenzoyleneurea] here?
A: Its IC50 is 70 µM.

From patent publication US5866576A, “Epoxide-containing compounds” (Cell Therapeutics, Inc., priority 1997, dated 1999)
